Measurements reported in patent US20250381245A1, “METHODS AND COMPOSITIONS OF TREATING CANCER BY MODULATING PALMITOYLATION OF FLOTILLIN-1” (BOARD OF REGENTS, THE UNIVERSITY OF TEXAS SYSTEM, priority 2022, published 2025).
Residues, ends and D or L forms follow the SMILES beside them. *: point of attachment. Cbz = O=C(OCc1ccccc1)*

Test system: flotillin-1
Assay: Flotillin-1 protein level by western blot after chemical inhibition of palmitoylation in triple-negative breast cancer cell lines
Format: cell-based
Details: MDA-MB-231 and SUM 159 triple-negative breast cancer cell lines
Method: MDA-MB-231 and SUM 159 triple-negative breast cancer cell lines were treated with drug vehicle (DMSO), (B, C) global palmitoylation inhibitor (2-BP), or 2-BP+a proteasomal inhibitor (MG-132).
Protein lysates were lysed in a 1% SDS lysis buffer containing 2 mM EDTA and 20 mM Tris-HCl (PH 6.8) for 5 minutes and scraped into 1.5 mL collection tubes. Lysates were sonicated using horn sonification for 3×20 seconds each and allowed to recover on ice in between each sonification. Lysates were centrifuged for 5 minutes at 10,000 rpm at 4° C. and supernatants subjected to protein quantification by BCA assay. Lysates were then diluted to 50 ug, resolubilized in 4×SDS loading buffer (200 mM Tris-HCL, 6.8 PH, 8% SDS, 40% glycerol, 0.4% bromophenol blue) and boiled at 95° C. for 7 minutes. Boiled samples were resolved on a 10% SDS-PAGE gel and transferred to a nitrocellulose membrane. Transferred membranes were blocked for 1 hour in 5% non-fat dairy milk (NFDM). Blocked membranes were washed with 1× tris buffer saline+0.1% tween-20 (TBST) prior to the addition of the diluted primary antibody overnight at 4° C. The following day, membranes were washed thrice with TBST for 5 minutes each prior to the addition of rabbit (1:3000) (Cell Signaling Technologies, #7074) or mouse IgG (1:5000) secondary horse radish peroxidase (HRP) conjugated antibody diluted in 5% NFDM for 1 hour. […]

In the case of `CCCCCCCCCCCCCCC(Br)C(=O)O` (centres unmarked) [2-BP, 2-bromopalmitate], the flotillin-1 protein levels (global palmitoylation inhibitor vs drug vehicle (DMSO)) is reported as “significantly reduces flotillin-1 protein levels”.
In the case of `CC(C)C[C@@H](C=O)NC(=O)[C@H](CC(C)C)NC(=O)[C@H](CC(C)C)NC(=O)OCc1ccccc1` [MG-132] (Cbz-Leu-Leu-Leu-aldehyde), the “flotillin-1 protein levels upon proteasomal inhibition” value (2-BP + proteasomal inhibitor (MG-132) vs 2-BP alone) is reported as “restored”.
